Data from patent EP0427484B1, “Novel benzoxazolone compounds and the use thereof as microbicides” (ROHM AND HAAS COMPANY, priority 1989, dated 1991).
Converted amounts (≈) assume the structure as drawn.

What was measured:
[1] = tested on: Septoria nodorum; settings: 25 ppm
[2] = tested on: Cochliobolus sativus; settings: 25 ppm
[3] = tested on: Pythium ultimum; settings: 25 ppm
[4] = tested on: Rhizoctonia solani; settings: 25 ppm
[5] = tested on: Fusarium roseum; type: cell-based; settings: in vitro, dose 25 ppm, relative to untreated check
[6] = tested on: Penicillium funiculosum (P. fun.) - ATCC 11797; assay: MIC test, broth two-fold serial dilution; type: cell-based; settings: Talaromyces funiculosus, ATCC11797, complete inhibition of growth, read-out: MIC (ppm) for each compound
Method: (§1) Activity against certain bacteria and fungi was determined using a minimum inhibitory concentration (MIC) test, which establishes the minimum concentration of test compound required to achieve complete inhibition of growth of the test organism. An MIC value was obtained using a broth, two-fold serial dilution test performed as follows: […] A volume of the stock solution was dispensed into culture media to give an initial starting test concentration of 500 ppm compound. When the test was ready to be done, each vessel in the dilution series, except the first vessel, contained an equal volume of compound free broth. The first vessel contained twice the volume of broth with the starting concentration of test compound. One half of the broth from the first vessel was transferred to the second vessel. After being mixed, one half the resulting volume was removed from the second vessel and transferred to the third vessel. The entire cycle was repeated sufficiently to give a series of concentrations amounting to 500, 250, 125, 63, 31, 16, 8, and 4 ppm (or 25, 12.5, 6.2, 3.1, 1.6, 0.8, 0.4, 0.2), respectively. Each vessel was then inoculated with a cell suspension of the appropriate test organism. Bacteria were grown in broth and fungi on agar […] for a time and at a temperature appropriate to the species being tested. At the end of the growth period, the bacteria containing broth was vortexed to disperse the cells. In the case of fungi, the spores were harvested by pipetting water onto the slant and dislodging the spores with a sterile loop. The cell/spore suspension was standardized by controlling incubation time, temperature, and the volume of the diluent. The suspension was then used to inoculate the vessels containing the broth compound. The vessels were then incubated at the appropriate temperature. Alter the incubation, the vessels were examined for growth/no growth. The minimum inhibitory concentration (MIC) is defined as the lowest concentration of compound that results in complete inhibition of growth of the test organism. The organisms tested were bacteria Pseudomonas fluorescens (Ps.fl) - ATCC 948, Pseudomonas aeruginosa (Ps.ae) - ATCC 15442, Escherichia Coli (E.coli) - ATCC 11229, and Staphylococcus aureus (S.aur) - ATCC 6538; and fungi Aspergillus niger (A. niger) - ATCC 6275, Penicillium funiculosum (P. fun.) - ATCC 11797, Cladosporium resinae (A. res.) - ATCC 52833, Aureobasidium pullulans (A. pull.) - ATCC 9248, Cloeophyllum trabeuor (G. trab.) - ATCC 11539; and two yeasts Sacharomyces […].) - ATCC 560, and Rhorotorularubra (R. rubra) - ATCC 2503.

[7] = tested on: Sacharomyces cereresae (S. cer.) - ATCC 560; assay: MIC test, broth two-fold serial dilution; type: cell-based; settings: complete inhibition of growth, read-out: MIC (ppm) for each compound
Method: as §1

[8] = tested on: Rhorotorularubra (R. rubra) - ATCC 2503; assay: MIC test, broth two-fold serial dilution; type: cell-based; settings: complete inhibition of growth, read-out: MIC (ppm) for each compound
Method: as §1

[9] = tested on: Pseudomonas fluorescens (Ps.fl) - ATCC 948; assay: MIC test, broth two-fold serial dilution; type: cell-based; settings: ATCC948, complete inhibition of growth, read-out: MIC (ppm) for each compound
Method: as §1

[10] = tested on: Cladosporium resinae (A. res.) - ATCC 52833; assay: MIC test, broth two-fold serial dilution; type: cell-based; settings: Amorphotheca resinae, ATCC52833; Cl.res.; complete inhibition of growth; read-out: MIC (ppm) for each compound
Method: as §1

[11] = tested on: Cloeophyllum trabeuor (G. trab.) - ATCC 11539; assay: MIC test, broth two-fold serial dilution; type: cell-based; settings: complete inhibition of growth, read-out: MIC (ppm) for each compound
Method: as §1

[12] = tested on: Aspergillus niger (A. niger) - ATCC 6275; assay: MIC test, broth two-fold serial dilution; type: cell-based; settings: ATCC6275, complete inhibition of growth, read-out: MIC (ppm) for each compound
Method: as §1

[13] = tested on: Pseudomonas aeruginosa (Ps.ae) - ATCC 15442; assay: MIC test, broth two-fold serial dilution; type: cell-based; settings: ATCC15442, complete inhibition of growth, read-out: MIC (ppm) for each compound
Method: as §1

[14] = tested on: Aureobasidium pullulans (A. pull.) - ATCC 9248; assay: MIC test, broth two-fold serial dilution; type: cell-based; settings: ATCC9248, complete inhibition of growth, read-out: MIC (ppm) for each compound
Method: as §1

[15] = tested on: Escherichia Coli (E.coli) - ATCC 11229; assay: MIC test, broth two-fold serial dilution; type: cell-based; settings: ATCC11229, complete inhibition of growth, read-out: MIC (ppm) for each compound
Method: as §1

[16] = tested on: Staphylococcus aureus (S.aur) - ATCC 6538; assay: MIC test, broth two-fold serial dilution; type: cell-based; settings: ATCC6538, complete inhibition of growth, read-out: MIC (ppm) for each compound
Method: as §1

[17] = tested on: Phytophthora capsici; settings: 25 ppm
[18] = tested on: Xanthomonas campestris; type: cell-based; settings: in vitro, dose 25 ppm, relative to untreated check
[19] = tested on: Piricularia oryzae; type: cell-based; settings: in vitro, dose 25 ppm, relative to untreated check
[20] = tested on: Botrytis cinerea; settings: 25 ppm
[21] = tested on: Septoria nodorum; assay: In vivo plant disease control test, wheat glume blotch (WGB)
[22] = tested on: Puccinia recondita (f. sp. tritici Races PKB and PLD); assay: In vivo plant disease control test, wheat leaf rust (WLR); settings: Fielder wheat, 200 ppm, scored after 10 days
[23] = tested on: Pseudoperonospora cubensis; assay: In vivo plant disease control test, cucumber downy mildew (CDM)
[24] = tested on: Phytophthora infestans; type: in vivo; settings: Pixie tomato plants, sprayed at 200 ppm before inoculation, four days after inoculation
[25] = tested on: Erysiphe graminis (f. sp. tritici); assay: In vivo plant disease control test, wheat powdery mildew (WPM)
[26] = tested on: Piricularia oryzae; type: in vivo; settings: Nato rice plants, sprayed at 200 ppm before inoculation, seven to eight days after inoculation

Compound | % DISEASE CONTROL SEP [1] | % DISEASE CONTROL HEL [2] | % DISEASE CONTROL PRU [3] | % DISEASE CONTROL RMI [4] | % DISEASE CONTROL FUS [5] | MIC [6] | MIC [7] | MIC [8] | MIC [9] | MIC [10] | MIC [11] | MIC [12] | MIC [13] | MIC [14] | MIC [15] | MIC [16] | % DISEASE CONTROL PHY [17] | % DISEASE CONTROL XAN [18] | % DISEASE CONTROL PIR [19] | % DISEASE CONTROL BOC [20] | other results
O=c1oc2cc(Cl)ccc2n1CC#CI [Y=6-Cl, X=I, 3-(3-iodopropargyl)-6-chloro-2-benzoxazolone] | 100% | 100% | 95% | 100% | 100% | ≤ 1 µg/mL | ≤ 5 µg/mL | ≤ 1 µg/mL | 16 µg/mL (≈ 48 µM) | ≤ 1 µg/mL | ≤ 1 µg/mL | < 0.13 µg/mL | > 250 µg/mL | ≤ 1 µg/mL | > 250 µg/mL | 16 µg/mL (≈ 48 µM) | 100% | 0% | 100% | 100% | –
O=c1oc2ccccc2n1CC#CBr [Y=H, X=Br, 3-(3-bromopropargyl)-2-benzoxazolone] | – | – | – | – | – | > 25 µg/mL | > 25 µg/mL | > 25 µg/mL | > 250 µg/mL | > 25 µg/mL | > 25 µg/mL | > 25 µg/mL | > 250 µg/mL | > 25 µg/mL | > 250 µg/mL | > 250 µg/mL | – | – | – | – | –
O=c1oc2ccccc2n1CC#CI [Y=H, X=I, 3-(3-iodopropargyl)-2-benzoxazolone] | 100% | 100% | 100% | 95% | 100% | ≤ 1 µg/mL | ≤ 1 µg/mL | ≤ 1 µg/mL | > 250 µg/mL | ≤ 5 µg/mL | ≤ 0.2 µg/mL | < 0.13 µg/mL | > 250 µg/mL | 0.25 µg/mL (≈ 0.836 µM) | > 250 µg/mL | > 250 µg/mL | 100% | 0% | 100% | 100% | % DISEASE CONTROL WGB [21]: 0%; % DISEASE CONTROL WLR [22]: 90%; % DISEASE CONTROL CDM [23]: 50%; % DISEASE CONTROL TLB [24]: 0%; % DISEASE CONTROL WPM [25]: 90%; % DISEASE CONTROL RB [26]: 95%
O=c1oc2cc(Cl)ccc2n1CC#CBr [Y=6-Cl, X=Br, 3-(3-bromopropargyl)-6-chloro-2-benzoxazolone] | 0% | 50% | 50% | 0% | 0% | > 25 µg/mL | > 25 µg/mL | > 25 µg/mL | > 250 µg/mL | > 25 µg/mL | > 25 µg/mL | 32 µg/mL (≈ 112 µM) | > 250 µg/mL | 32 µg/mL (≈ 112 µM) | > 250 µg/mL | > 250 µg/mL | 0% | 0% | 0% | 50% | –
